Results from paper PMC8991007, “Benzylic Dehydroxylation of Echinocandin Antifungal Drugs Restores Efficacy against Resistance Conferred by Mutated Glucan Synthase” (Journal of the American Chemical Society, 2022).
Values after ≈ are worked out from the molar mass of the structure shown. Read-outs that look alike come from different tables or passages of the source. *1 amine or outer side, *2 acyl side, *3 side chain or, on linkers, in order; H or OH if unused. Where a SMILES comes first, the peptide text is derived from it. Bridges are numbered along the chain shown (N, C = ends). [ ]: non-standard residue; d: D form. The star is where a group is joined. Orn(4R-OH,5R-OCH2CH2NMe3+) = C[N+](C)(C)CCO[C@@H](N[*:3])[C@H](O)C[C@H](N[*:1])C(=O)[*:2]; pTerphenylCO(4''-OnC5H11) = CCCCCOc1ccc(-c2ccc(-c3ccc(C(=O)*)cc3)cc2)cc1; Orn(4R-OH,5R-OH) = O=C([C@H](C[C@@H](O)[C@@H](O)N[*:3])N[*:1])[*:2]; hTyr(3S-OH,4S-OH) = N[C@H](C(=O)O)[C@H](O)[C@@H](O)c1ccc(O)cc1; Pro(3S-OH,4S-Me) = C[C@H]1CN[C@H](C(=O)O)[C@H]1O; hTyr(3R-OH) = N[C@H](C(=O)O)[C@H](O)Cc1ccc(O)cc1; Hyp = O=C(O)[C@@H]1C[C@@H](O)CN1

Assays:
THLE-2 cells = test: cells; type: cell-based; conditions: Homo sapiens
Experimental: The effects of ANF and RZF and their dehydroxylated derivatives 1 and 2 on the viability of human cells were further evaluated in an assay with THLE-2 cells, which are a transformed human liver epithelial cell line. These cells express phenotypic characteristics of normal adult liver epithelial cells.
THLE-2 cells (ATCC, cat. no. CRL2706) were cultured in 384-well plates coated with BEBM (Lonza, cat. no CC3170) containing 100 μg/mL BSA, 1:100 fibronectin (Sigma, cat. no. F0895), and a 1:100 PureCol EZ Gel Solution (Sigma, cat. no. 5074) for 50–60 min at 37 °C. THLE-2 cells were plated at a density of 2.5 × 10^3 cells/well in the coated plates in a total volume of 20 μL. Culture media were BEGM supplemented with 5 ng/mL hEGF (Sigma, cat. no. E5036), 70 ng/mL phosphoethanolamine (Sigma, cat. no. P0503), and 10% fetal bovine serum. Plates were incubated overnight at 37 °C, 95% humidity, and 5% CO2. The culture medium was replaced with 50 μL of a fresh medium, and compounds were applied to the cells in triplicate. Plates were cultured for another 72 h, and ATP was quantified using a CellTiter-Glo kit (Promega #G7573) according to the manufacturer’s protocol. The luminescence signal was detected using a PHERAstar FS (BMG Labtech).

Hs 578T = test: Phenotypic viability assay of GFP reporter cell line; type: cell-based; conditions: Homo sapiens; Hs 578T expressing GFP, 24 h, mean ± SD
Experimental: (§1) In this analysis, we used HCT-116, a human colorectal carcinoma cell line; UACC-62, a human melanoma cell line; Hs 578T, a human mammary gland carcinoma cell line, and SF-295, a human glioblastoma cell line. […] The highest concentration of the echinocandins used for the cell viability tests was determined based on the reported maximal plasma concentrations (Cmax) of ANF and RZF measured in humans. A Cmax of approximately 7 μM was measured during a pharmacokinetic study of ANF in patients with candidemia or invasive candidiasis who were treated with a 200 mg loading dose on day 1, followed by a daily 100 mg maintenance dose.[64]
(§2) Human cell lines HCT-116, UACC-62, Hs 578T, and SF-295 were obtained from the Life Sciences Core Facilities of the Nancy & Stephen Grand Israel National Center for Personalized Medicine. Cell lines were grown in an RPMI medium (Gibco, cat. no. 21875-034) supplemented with 10% fetal calf serum (Biological Industries, cat. no. 04-007-1A), Pen/Strep (Biological Industries, cat. no. 03-031-1B), and glutamine (Biological Industries, cat. no. 03-020-1B). GFP was introduced into cells using TALENS according to a previously reported protocol.[73] GFP cells were selected by FACS and propagated.
(§3) Assay-ready plates were designed using in-house software (CHEMPION, INCPM software development team) and prepared in 384-well Greiner plates (cat. no. 781091) using an Echo 555 Acoustic Liquid Handler (Labcyte). The final DMSO concentration in all samples was 0.4%. Prior to the experiment, cells were trypsinized and counted using a Countess cytometer. Cells were then diluted to 40,000 cells/mL in a fresh medium. Cells (50 μL/well; 2000 cells/well) were then dispensed with a Thermo Combi dispenser into plates containing predispensed compounds. After 30 min at room temperature to ensure uniform adherence of cells, the plates were moved to an automated incubator (Liconic STX44) and incubated at 37 °C. An automated confocal microscope with a 4× S Fluor lens (Molecular Devices ImageExpress) was used to acquire images of GFP-expressing cells after 24 h of incubation. Images were then analyzed using MetaExpress with a custom protocol (Custom Module Editor), and data were annotated and normalized using Genedata Screener software. Final normalized data were then loaded into CDD Vault software for comparative data visualization.

C. albicans = test: Minimum inhibitory concentration broth double-dilution assay; type: cell-based, Candida albicans; conditions: for MIC: 24 h, 30 °C
Experimental: The antifungal activities of compounds 1 and 2 were evaluated against a panel of 50 strains of C. albicans and C. glabrata (Table S4), including echinocandin-resistant strains that were constructed by introducing mutations within and near the defined hotspots in the FKS1 and/or FKS2 genes.[27] To evaluate antifungal activity, we determined MIC values. The MIC was defined as the lowest drug concentration that led to turbidity (measured at 600 nm) of less than or equal to 35% of that of the untreated culture. As controls, we tested CSF, MCF, ANF, and RZF.
All of the tested compounds were dissolved in anhydrous DMSO to a concentration of 5 mg/mL. Candida strains were streaked from a glycerol stock onto YPAD agar plates and grown for 24 h at 30 °C. Colonies were suspended in 1 mL of PBS and diluted to an O.D. of 0.01 at 600 nm with YPAD broth and added into flat-bottom 96-well microplates (Corning) containing a gradient of twofold dilutions per tested compound with concentrations ranging from 64 to 0.0009 μg/mL. Control wells with no drug and blank wells without yeast cells containing YPAD only were also prepared. […] Each concentration was tested in triplicate, and results were confirmed by at least two independent sets of experiments.

UACC-62 = test: cells; type: cell-based; conditions: Homo sapiens; UACC-62 expressing GFP, 24 h, mean ± SD; read-out: IC50 (cell viability)
Experimental: as §1, §2, §3

HCT-116 = test: cells; type: cell-based; conditions: Homo sapiens; HCT-116 expressing GFP, 24 h, mean ± SD; read-out: IC50 (cell viability)
Experimental: as §1, §2, §3

SF-295 = test: cells; type: cell-based; conditions: Homo sapiens; SF-295 expressing GFP, 24 h, mean ± SD; read-out: IC50 (cell viability)
Experimental: as §1, §2, §3

[1] = THLE-2, 72 h of incubation, ranges for ANF and 1 and for RZF and 2 stated jointly, read-out: IC50 value (THLE-2 viability)
[2] = THLE-2, 72 h, ATP luminescence, read-out: IC50 (cell viability)
[3] = #2 C. albicans DPL1015 (DP-A15)
[4] = #3 C. albicans DPL1016 (DP-A15-10)

Structure (SMILES) | IC50 (THLE-2 cells; [1]) [µM] | IC50 (THLE-2 cells; [2]) [µM] | IC50 (Hs 578T) [µM] | MIC (C. albicans; #1 C. albicans Sc5314) [µg/mL] | MIC (C. albicans; [3]) [µg/mL] | MIC (C. albicans; [4]) [µg/mL] | MIC (C. albicans; #4 C. albicans T-2068 (DP-C42)) [µg/mL] | MIC (C. albicans; #5 C. albicans T-2069 (DP-85)) [µg/mL] | MIC (C. albicans; #6 C. albicans (DP-89)) [µg/mL] | MIC (C. albicans; #7 C. albicans T-2076 (DP-194)) [µg/mL] | MIC (C. albicans; #8 C. albicans T-2077 (DP-205)) [µg/mL] | IC50 (UACC-62) [µM] | IC50 (HCT-116) [µM] | IC50 (SF-295) [µM] | MIC difference between ANF and dehydroxy derivative 1 (ratio MIC (ANF)/MIC (1)) (C. albicans; C. albicans strain 4, Fks1 phenylalanine 641 to serine) [fold] | MIC differences between RZF and dehydroxy derivative 2 (ratio MIC (RZF)/MIC (2)) (C. albicans; C. albicans strains 5 and 6, Fks1 serine 645 to phenylalanine or tyrosine)
CCCCCOc1ccc(-c2ccc(-c3ccc(C(=O)N[C@H]4C[C@@H](O)[C@@H](O)NC(=O)[C@@H]5[C@@H](O)[C@@H](C)CN5C(=O)[C@H]([C@@H](C)O)NC(=O)[C@H]([C@H](O)[C@@H](O)c5ccc(O)cc5)NC(=O)[C@@H]5C[C@@H](O)CN5C(=O)[C@H]([C@@H](C)O)NC4=O)cc3)cc2)cc1 [ANF, anidulafungin] ({pTerphenylCO(4''-OnC5H11)}-[Orn(4R-OH,5R-OH)]T[Hyp][hTyr(3S-OH,4S-OH)]T[Pro(3S-OH,4S-Me)]; lactam 1-C) | 36 to 41 | 40.6 ± 2.9 | > 40 | 0.004 (≈ 0.00351 µM) | 0.063 (≈ 0.0553 µM) | 4 (≈ 3.51 µM) | 2 (≈ 1.75 µM) | 2 (≈ 1.75 µM) | 2 (≈ 1.75 µM) | 0.5 (≈ 0.438 µM) | 0.5 (≈ 0.438 µM) | 34.5 ± 4.15 | > 40 | 19.3 ± 1.97 |  | 
CCCCCOc1ccc(-c2ccc(-c3ccc(C(=O)N[C@H]4C[C@@H](O)[C@@H](O)NC(=O)[C@@H]5[C@@H](O)[C@@H](C)CN5C(=O)[C@H]([C@@H](C)O)NC(=O)[C@H]([C@H](O)Cc5ccc(O)cc5)NC(=O)[C@@H]5C[C@@H](O)CN5C(=O)[C@H]([C@@H](C)O)NC4=O)cc3)cc2)cc1 [Compound 1, dehydroxy-ANF] ({pTerphenylCO(4''-OnC5H11)}-[Orn(4R-OH,5R-OH)]T[Hyp][hTyr(3R-OH)]T[Pro(3S-OH,4S-Me)]; lactam 1-C) | 36 to 41 | 36.4 ± 2.75 | > 40 | 0.008 (≈ 0.00712 µM) | 0.031 (≈ 0.0276 µM) | 1 (≈ 0.889 µM) | 0.25 (≈ 0.222 µM) | 0.5 (≈ 0.445 µM) | 1 (≈ 0.889 µM) | 0.5 (≈ 0.445 µM) | 0.125 (≈ 0.111 µM) | > 40 | > 40 | 17.5 ± 1.57 | 8 | 
CCCCCOc1ccc(-c2ccc(-c3ccc(C(=O)N[C@H]4C[C@@H](O)[C@@H](OCC[N+](C)(C)C)NC(=O)[C@@H]5[C@@H](O)[C@@H](C)CN5C(=O)[C@H]([C@@H](C)O)NC(=O)[C@H]([C@H](O)[C@@H](O)c5ccc(O)cc5)NC(=O)[C@@H]5C[C@@H](O)CN5C(=O)[C@H]([C@@H](C)O)NC4=O)cc3)cc2)cc1 [RZF, rezafungin] ({pTerphenylCO(4''-OnC5H11)}-[Orn(4R-OH,5R-OCH2CH2NMe3+)]T[Hyp][hTyr(3S-OH,4S-OH)]T[Pro(3S-OH,4S-Me)]; lactam 1-C) | 36 to 77 | 76.6 ± 4.8 | > 40 | 0.015 | 0.25 | 4 | 2 | 8 | 8 | 1 | 1 | > 40 | > 40 | > 40 |  | 
CCCCCOc1ccc(-c2ccc(-c3ccc(C(=O)N[C@H]4C[C@@H](O)[C@@H](OCC[N+](C)(C)C)NC(=O)[C@@H]5[C@@H](O)[C@@H](C)CN5C(=O)[C@H]([C@@H](C)O)NC(=O)[C@H]([C@H](O)Cc5ccc(O)cc5)NC(=O)[C@@H]5C[C@@H](O)CN5C(=O)[C@H]([C@@H](C)O)NC4=O)cc3)cc2)cc1 [Compound 2, dehydroxy-RZF] ({pTerphenylCO(4''-OnC5H11)}-[Orn(4R-OH,5R-OCH2CH2NMe3+)]T[Hyp][hTyr(3R-OH)]T[Pro(3S-OH,4S-Me)]; lactam 1-C) | 36 to 77 | 55.9 ± 3 | > 40 | 0.015 | 0.062 | 2 | 0.5 | 0.5 | 1 | 1 | 0.25 | 29.2 ± 5.2 | 34.1 ± 11.5 | 32.4 ± 6.7 |  | at least 8 fold
